Assay results: patent publication US9469650B2, “Melampomagnolide B derivatives” (BOARD OF TRUSTEES OF THE UNIVERSITY OF ARKANSAS, priority 2013, dated 2016)

Legend:
[1] = test system: SR; test: panel of 60 human tumor cell lines, growth inhibition (Leukemia)
[2] = test system: NCI-H322M; test: panel of 60 human tumor cell lines, growth inhibition (Non-Small Cell Lung Cancer)
[3] = test system: HOP-92; test: as above; conditions: for Percent Growth: HOP-92
[4] = test system: MDA-MB-435; test: panel of 60 human tumor cell lines, growth inhibition (Melanoma)
[5] = test system: HCT-15; test: panel of 60 human tumor cell lines, growth inhibition (Colon Cancer)
[6] = test system: OVCAR-8; test: panel of 60 human tumor cell lines, growth inhibition (Ovarian Cancer)
[7] = test system: MDA-MB-468; test: panel of 60 human tumor cell lines, growth inhibition (Breast Cancer)
[8] = test system: A498; test: panel of 60 human tumor cell lines, growth inhibition (Renal Cancer)
[9] = test system: UACC-257; test: panel of 60 human tumor cell lines, growth inhibition (Melanoma)
[10] = test system: COLO 205; test: panel of 60 human tumor cell lines, growth inhibition (Colon Cancer)
[11] = test system: KM12; test: as above
[12] = test system: OVCAR-5; test: panel of 60 human tumor cell lines, growth inhibition (Ovarian Cancer)
[13] = test system: RXF 393; test: panel of 60 human tumor cell lines, growth inhibition (Renal Cancer); conditions: for Percent Growth: RXF 393
[14] = test system: SF-539; test: panel of 60 human tumor cell lines, growth inhibition (CNS Cancer)
[15] = test system: CCRF-CEM; test: panel of 60 human tumor cell lines, growth inhibition (Leukemia)
[16] = test system: SF-268; test: panel of 60 human tumor cell lines, growth inhibition (CNS Cancer)
[17] = test system: UACC-62; test: panel of 60 human tumor cell lines, growth inhibition (Melanoma)

SMILES: C=C1C(=O)O[C@H]2[C@H]1CC/C(COC(=O)CCC(=O)NCc1ccc(Cl)nc1)=C\CC[C@@]1(C)O[C@@H]21 [JVM 96]
- GI50 ([1]; Homo sapiens): 2.59 µM
- CC50 ([1]; Homo sapiens, read-out: LC50): > 100 µM
- IC (TGI) ([1]; Homo sapiens, read-out: TGI): 18 µM
- Percent Growth ([1]; Log10 Concentration −4.0): −35%
- Percent Growth ([1]; Log10 Concentration −5.0): 12%
- Percent Growth ([1]; Log10 Concentration −6.0): 77%
- Percent Growth ([1]; Log10 Concentration −7.0): 90%
- Percent Growth ([1]; Log10 Concentration −8.0): 84%
- GI50 ([2]; Homo sapiens): 29.6 µM
- CC50 ([2]; Homo sapiens, read-out: LC50): > 100 µM
- IC (TGI) ([2]; Homo sapiens, read-out: TGI): > 100 µM
- Percent Growth ([2]; Log10 Concentration −4.0): 5%
- Percent Growth ([2]; Log10 Concentration −5.0): 90%
- Percent Growth ([2]; Log10 Concentration −6.0): 99%
- Percent Growth ([2]; Log10 Concentration −7.0): 95%
- Percent Growth ([2]; Log10 Concentration −8.0): 92%
- Percent Growth ([3]; Log10 Concentration −4.0): −93%
- Percent Growth ([3]; Log10 Concentration −5.0): −2%
- Percent Growth ([3]; Log10 Concentration −6.0): 90%
- Percent Growth ([3]; Log10 Concentration −7.0): 93%
- Percent Growth ([3]; Log10 Concentration −8.0): 93%
- GI50 ([3]; Homo sapiens, HOP-92, HOP-92): 2.72 µM
- CC50 ([3]; Homo sapiens, HOP-92, read-out: LC50): 33.7 µM
- IC (TGI) ([3]; Homo sapiens, HOP-92, read-out: TGI): 9.47 µM
- GI50 ([4]; Homo sapiens, MDA-MB-435): 4.95 µM
- CC50 ([4]; Homo sapiens, MDA-MB-435, read-out: LC50): 61.9 µM
- IC (TGI) ([4]; Homo sapiens, MDA-MB-435, read-out: TGI): 20.4 µM
- Percent Growth ([4]; MDA-MB-435, Log10 Concentration −4.0): −72%
- Percent Growth ([4]; MDA-MB-435, Log10 Concentration −5.0): 32%
- Percent Growth ([4]; MDA-MB-435, Log10 Concentration −6.0): 90%
- Percent Growth ([4]; MDA-MB-435, Log10 Concentration −7.0): 89%
- Percent Growth ([4]; MDA-MB-435, Log10 Concentration −8.0): 97%
- Percent Growth ([5]; HCT-15, Log10 Concentration −4.0): −88%
- Percent Growth ([5]; HCT-15, Log10 Concentration −5.0): 16%
- Percent Growth ([5]; HCT-15, Log10 Concentration −6.0): 8.9%
- Percent Growth ([5]; HCT-15, Log10 Concentration −7.0): 93%
- Percent Growth ([5]; HCT-15, Log10 Concentration −8.0): 93%
- GI50 ([5]; Homo sapiens, HCT-15): 3.43 µM
- CC50 ([5]; Homo sapiens, HCT-15, read-out: LC50): 43.1 µM
- IC (TGI) ([5]; Homo sapiens, HCT-15, read-out: TGI): 14.2 µM
- GI50 ([6]; Homo sapiens, OVCAR-8): 12.5 µM
- CC50 ([6]; Homo sapiens, OVCAR-8, read-out: LC50): 72 µM
- IC (TGI) ([6]; Homo sapiens, OVCAR-8, read-out: TGI): 30 µM
- Percent Growth ([6]; OVCAR-8, Log10 Concentration −4.0): −69%
- Percent Growth ([6]; OVCAR-8, Log10 Concentration −5.0): 63%
- Percent Growth ([6]; OVCAR-8, Log10 Concentration −6.0): 105%
- Percent Growth ([6]; OVCAR-8, Log10 Concentration −7.0): 95%
- Percent Growth ([6]; OVCAR-8, Log10 Concentration −8.0): 95%
- GI50 ([7]; Homo sapiens, MDA-MB-468): 1.54 µM
- CC50 ([7]; Homo sapiens, MDA-MB-468, read-out: LC50): 44.6 µM
- IC (TGI) ([7]; Homo sapiens, MDA-MB-468, read-out: TGI): 7.38 µM
- Percent Growth ([7]; MDA-MB-468, Log10 Concentration −4.0): −72%
- Percent Growth ([7]; MDA-MB-468, Log10 Concentration −5.0): −10%
- Percent Growth ([7]; MDA-MB-468, Log10 Concentration −6.0): 64%
- Percent Growth ([7]; MDA-MB-468, Log10 Concentration −7.0): 94%
- Percent Growth ([7]; MDA-MB-468, Log10 Concentration −8.0): 88%
- Percent Growth ([8]; A498, Log10 Concentration −4.0): −95%
- Percent Growth ([8]; A498, Log10 Concentration −5.0): 74%
- Percent Growth ([8]; A498, Log10 Concentration −6.0): 95%
- Percent Growth ([8]; A498, Log10 Concentration −7.0): 107%
- Percent Growth ([8]; A498, Log10 Concentration −8.0): 96%
- GI50 ([8]; Homo sapiens, A498): 13.9 µM
- CC50 ([8]; Homo sapiens, A498, read-out: LC50): 54.2 µM
- IC (TGI) ([8]; Homo sapiens, A498, read-out: TGI): 27.5 µM
- GI50 ([9]; Homo sapiens, UACC-257): 8.82 µM
- CC50 ([9]; Homo sapiens, UACC-257, read-out: LC50): 53.2 µM
- TGI ([9]; UACC-257): 2.26E−5
- Percent Growth ([9]; UACC-257, Log10 Concentration −4.0): −87%
- Percent Growth ([9]; UACC-257, Log10 Concentration −5.0): 47%
- Percent Growth ([9]; UACC-257, Log10 Concentration −6.0): 95%
- Percent Growth ([9]; UACC-257, Log10 Concentration −7.0): 90%
- Percent Growth ([9]; UACC-257, Log10 Concentration −8.0): 88%
- Percent Growth ([10]; COLO 205, Log10 Concentration −4.0): −90%
- Percent Growth ([10]; COLO 205, Log10 Concentration −5.0): 1%
- Percent Growth ([10]; COLO 205, Log10 Concentration −6.0): 103%
- Percent Growth ([10]; COLO 205, Log10 Concentration −7.0): 105%
- Percent Growth ([10]; COLO 205, Log10 Concentration −8.0): 109%
- GI50 ([10]; Homo sapiens, COLO 205): 3.3 µM
- CC50 ([10]; Homo sapiens, COLO 205, read-out: LC50): 36.6 µM
- IC (TGI) ([10]; Homo sapiens, COLO 205, read-out: TGI): 10.3 µM
- GI50 ([11]; Homo sapiens, KM12): 17.7 µM
- CC50 ([11]; Homo sapiens, KM12, read-out: LC50): 67.9 µM
- TGI ([11]; KM12): 3.46E−5
- Percent Growth ([11]; KM12, Log10 Concentration −4.0): −79%
- Percent Growth ([11]; KM12, Log10 Concentration −5.0): 92%
- Percent Growth ([11]; KM12, Log10 Concentration −6.0): 104%
- Percent Growth ([11]; KM12, Log10 Concentration −7.0): 100%
- Percent Growth ([11]; KM12, Log10 Concentration −8.0): 98%
- GI50 ([12]; Homo sapiens, OVCAR-5): 12.1 µM
- CC50 ([12]; Homo sapiens, OVCAR-5, read-out: LC50): 60.5 µM
- IC (TGI) ([12]; Homo sapiens, OVCAR-5, read-out: TGI): 27.1 µM
- Percent Growth ([12]; OVCAR-5, Log10 Concentration −4.0): −81%
- Percent Growth ([12]; OVCAR-5, Log10 Concentration −5.0): 62%
- Percent Growth ([12]; OVCAR-5, Log10 Concentration −6.0): 89%
- Percent Growth ([12]; OVCAR-5, Log10 Concentration −7.0): 84%
- Percent Growth ([12]; OVCAR-5, Log10 Concentration −8.0): 93%
- GI50 ([13]; Homo sapiens, RXF 393, RXF 393): 3.57 µM
- CC50 ([13]; Homo sapiens, RXF 393, read-out: LC50): 48.4 µM
- IC (TGI) ([13]; Homo sapiens, RXF 393, read-out: TGI): 14.4 µM
- Percent Growth ([13]; Log10 Concentration −4.0): −80%
- Percent Growth ([13]; Log10 Concentration −5.0): 15%
- Percent Growth ([13]; Log10 Concentration −6.0): 93%
- Percent Growth ([13]; Log10 Concentration −7.0): 100%
- Percent Growth ([13]; Log10 Concentration −8.0): 93%
- GI50 ([14]; Homo sapiens, SF-539): 3.25 µM
- CC50 ([14]; Homo sapiens, SF-539, read-out: LC50): 40.8 µM
- IC (TGI) ([14]; Homo sapiens, SF-539, read-out: TGI): 12.2 µM
- Percent Growth ([14]; SF-539, Log10 Concentration −4.0): −87%
- Percent Growth ([14]; SF-539, Log10 Concentration −5.0): 8%
- Percent Growth ([14]; SF-539, Log10 Concentration −6.0): 94%
- Percent Growth ([14]; SF-539, Log10 Concentration −7.0): 85%
- Percent Growth ([14]; SF-539, Log10 Concentration −8.0): 96%
- GI50 ([15]; Homo sapiens): 2.2 µM
- CC50 ([15]; Homo sapiens, read-out: LC50): > 100 µM
- IC (TGI) ([15]; Homo sapiens, read-out: TGI): 7.66 µM
- Percent Growth ([15]; Log10 Concentration −4.0): −49%
- Percent Growth ([15]; Log10 Concentration −5.0): −11%
- Percent Growth ([15]; Log10 Concentration −6.0): 82%
- Percent Growth ([15]; Log10 Concentration −7.0): 100%
- Percent Growth ([15]; Log10 Concentration −8.0): 99%
- GI50 ([16]; Homo sapiens, SF-268): 10.5 µM
- CC50 ([16]; Homo sapiens, SF-268, read-out: LC50): 67.6 µM
- IC (TGI) ([16]; Homo sapiens, SF-268, read-out: TGI): 26.7 µM
- Percent Growth ([16]; SF-268, Log10 Concentration −4.0): −71%
- Percent Growth ([16]; SF-268, Log10 Concentration −5.0): 52%
- Percent Growth ([16]; SF-268, Log10 Concentration −6.0): 97%
- Percent Growth ([16]; SF-268, Log10 Concentration −7.0): 98%
- Percent Growth ([16]; SF-268, Log10 Concentration −8.0): 97%
- GI50 ([17]; Homo sapiens, UACC-62): 6.61 µM
- CC50 ([17]; Homo sapiens, UACC-62, read-out: LC50): 51.2 µM
- IC (TGI) ([17]; Homo sapiens, UACC-62, read-out: TGI): 20.9 µM
- Percent Growth ([17]; UACC-62, Log10 Concentration −4.0): −87%
- Percent Growth ([17]; UACC-62, Log10 Concentration −5.0): 41%
- Percent Growth ([17]; UACC-62, Log10 Concentration −6.0): 90%
- Percent Growth ([17]; UACC-62, Log10 Concentration −7.0): 98%
- Percent Growth ([17]; UACC-62, Log10 Concentration −8.0): 98%
